TGI and GI50 data for 26 compounds are collected here from PubChem BioAssay (NCI).

Molecules are shown by their SMILES.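 Where inhibition never reached the appropriate level, the endpoint shown equals the highest concentration tested. Otherwise, values were interpolated linearly from a five-concentration, 48-hour dose response in 96-well plates. At the GI50, growth is halved. TGI marks complete inhibition of growth.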 Some results are limits rather than exact numbers.

Some test systems named below: A549 NSCLC; COLO 205 colon; EKVX NSCLC; MALME-3M melanoma; NCI-H522 lung; SF-295 CNS; TK-10 renal.
Assay in all cases: NCI-60 cell line screen, 48 h

Regarding `Cc1ccc(SCC(O)=C2C(=O)CCCC2=O)cc1`, the TGI in the assay on A549 NSCLC, with COLO 205 colon, in the assay on EKVX NSCLC, with MALME-3M melanoma, in the assay with NCI-H522 lung and in the assay on SF-295 CNS was more than 100 µM in each case. This compound displayed a TGI with TK-10 renal of more than 100 µM.
`Cc1cc(Cl)ccc1NC(=O)CCCC(=O)C(C(=O)c1ccccc1)c1ccccc1` (configuration not stated): the TGI in the assay with COLO 205 colon, with MALME-3M melanoma, in the assay on NCI-H522 lung and in the assay with SF-295 CNS was more than 100 µM throughout.
On to `O=C(O)Cc1cc(=O)[nH]c2c1C(=O)CCC2`, for which the TGI in the assay with COLO 205 colon, with EKVX NSCLC, in the assay with MALME-3M melanoma, with NCI-H522 lung, in the assay with SF-295 CNS and with TK-10 renal was more than 100 µM each time.
Turning to `CN(CCN(C)C(=O)CCn1ccc(=O)[nH]c1=O)C(=O)CCn1ccc(=O)[nH]c1=O`, the TGI with A549 NSCLC, with COLO 205 colon, in the assay on EKVX NSCLC, with MALME-3M melanoma, with NCI-H522 lung and in the assay with SF-295 CNS was more than 100 µM each time. The compound also had a TGI with TK-10 renal of more than 100 µM.
`COc1cc(C(=O)C/C(CCC(=O)Nc2ccc(Cl)cc2Cl)=N/Nc2nnc(C)n2N)ccc1O`: the TGI with A549 NSCLC, in the assay on COLO 205 colon, in the assay with EKVX NSCLC, in the assay on MALME-3M melanoma, with NCI-H522 lung and in the assay on SF-295 CNS was more than 100 µM in each case. Also, in the assay with TK-10 renal, the TGI was more than 100 µM.
`O=c1cccccc1NCCNc1cccccc1=O`: the TGI was more than 100 µM in the assay on A549 NSCLC; more than 100 µM in the assay on COLO 205 colon; more than 100 µM in the assay on EKVX NSCLC; 47.9 µM in the assay on MALME-3M melanoma; more than 100 µM with NCI-H522 lung; more than 100 µM with SF-295 CNS.
On to `Cc1ccc(C)c2c1CCc1cc3ccccc3nc1-2`, for which the TGI in the assay with A549 NSCLC, in the assay on COLO 205 colon, in the assay with EKVX NSCLC, in the assay with MALME-3M melanoma, with NCI-H522 lung and with SF-295 CNS was more than 100 µM throughout. The compound also had a TGI with TK-10 renal of more than 100 µM.
Regarding `CCCCN(CCCC)C(=O)C(=O)CC(=O)/C=C/c1ccccc1`, the TGI in the assay on A549 NSCLC, in the assay on COLO 205 colon, in the assay on EKVX NSCLC, with MALME-3M melanoma, in the assay with NCI-H522 lung and in the assay on SF-295 CNS was more than 100 µM throughout. The compound further gave a TGI in the assay with TK-10 renal of more than 100 µM.
For `N[C@H](C(=O)O)[C@@H](Cl)CC(=O)O`, the TGI in the assay on A549 NSCLC, in the assay on COLO 205 colon, with EKVX NSCLC, in the assay on MALME-3M melanoma, in the assay with NCI-H522 lung and in the assay on SF-295 CNS was more than 100 µM each time. The TGI in the assay with TK-10 renal is more than 100 µM.
For `COc1cc(C2(C)SCCCS2)c(I)c(OC)c1OC`, the TGI in the assay on A549 NSCLC, in the assay with COLO 205 colon, in the assay with EKVX NSCLC, in the assay on MALME-3M melanoma, in the assay with NCI-H522 lung and in the assay on SF-295 CNS was more than 100 µM throughout. In the assay with TK-10 renal, this compound had a TGI of more than 100 µM.
`CCCCCCCCCCCCCCC(O)C1CCC(C(O)CCC(O)CCCCCC(O)CC2=CC(C)OC2=O)O1` (configuration not stated): the TGI is 13.2 µM in the assay with A549 NSCLC; 8.41 µM in the assay with COLO 205 colon; 16.2 µM in the assay with EKVX NSCLC; 13.6 µM in the assay with MALME-3M melanoma; 7.4 µM in the assay on NCI-H522 lung; 10.3 µM with SF-295 CNS. In the assay on TK-10 renal, the TGI is 17.9 µM.
`COC(=O)/C(=N/O)C(C(=O)OC)C(=O)C(=O)Nc1c(Cl)cc(C)cc1S(=O)(=O)O` (configuration not stated): the TGI in the assay with A549 NSCLC, in the assay on COLO 205 colon, in the assay with EKVX NSCLC, with MALME-3M melanoma, with NCI-H522 lung and in the assay on SF-295 CNS was more than 100 µM throughout. This compound returned a TGI in the assay with TK-10 renal of more than 100 µM.
In the case of `COc1cc2c3c(c1OC)Oc1ccc(cc1)CC1c4c(cc(OC)c(OC)c4Oc4ccc(cc4)CC3N(C)CC2)CCN1C` (configuration not stated), the TGI with A549 NSCLC is 70.4 µM; in the assay on COLO 205 colon it was 26.4 µM; in the assay on EKVX NSCLC, more than 100 µM; with MALME-3M melanoma, 34.5 µM; with NCI-H522 lung, 25.8 µM; with SF-295 CNS, 36.1 µM. The compound also yielded a TGI with TK-10 renal of 46.1 µM.
With `O=C(Nc1ccccc1C(=O)O)C(=O)C(C(=O)c1ccccc1-c1ccccc1)C1OC(=O)c2ccccc21` (configuration not stated), the TGI in the assay on A549 NSCLC worked out at 81.9 µM; with COLO 205 colon, 47.5 µM; in the assay on EKVX NSCLC it was 58.6 µM; with MALME-3M melanoma, 28.6 µM; in the assay on NCI-H522 lung, 30.6 µM; in the assay with SF-295 CNS, 53.5 µM. The compound further displayed a TGI with TK-10 renal of 29.6 µM.
On to `COC(=O)C12C3C4C1C1C2C3C41C(=O)N(C(C)C)C(C)C` (configuration not stated), for which the TGI in the assay with A549 NSCLC, in the assay on COLO 205 colon, in the assay with EKVX NSCLC, in the assay on MALME-3M melanoma, in the assay on NCI-H522 lung and in the assay with SF-295 CNS was more than 100 µM each time. Further, the TGI in the assay on TK-10 renal was more than 100 µM.
Consider `O=C1OC2C=CC1C1(CCOC1=O)C2` (configuration not stated), for which the TGI in the assay with A549 NSCLC, in the assay on COLO 205 colon, with EKVX NSCLC, with MALME-3M melanoma, in the assay on NCI-H522 lung and in the assay on TK-10 renal was more than 100 µM in each case.
Consider `c1ccc(-c2[nH]c(-c3ccccc3)c(-c3cnccn3)c2-c2cnccn2)cc1`, for which the TGI with A549 NSCLC, in the assay on COLO 205 colon, in the assay on EKVX NSCLC, in the assay on MALME-3M melanoma, in the assay on NCI-H522 lung and in the assay with SF-295 CNS was more than 100 µM in each case. The TGI in the assay on TK-10 renal is more than 100 µM.
As to `COc1cccc2c1[C@]1(O)C(O)CCCC21` (some centres not stated), the TGI in the assay on A549 NSCLC, in the assay on COLO 205 colon, with MALME-3M melanoma, in the assay with NCI-H522 lung, in the assay with SF-295 CNS and in the assay with TK-10 renal was more than 100 µM throughout.
As to `CCOC(=O)NC(=O)c1cn(C2OC(CO)C(O)C2O)c(=O)[nH]c1=O` (configuration not stated), the TGI in the assay with A549 NSCLC, in the assay with EKVX NSCLC, in the assay with MALME-3M melanoma, with NCI-H522 lung and with SF-295 CNS was more than 100 µM in each case.
Regarding `CC1=NN(C(=O)c2cc(Cl)cc([N+](=O)[O-])c2)C(=O)C1N=Nc1ccccc1C(=O)O` (configuration not stated), the TGI in the assay with A549 NSCLC, with COLO 205 colon, with EKVX NSCLC, in the assay with MALME-3M melanoma, in the assay on NCI-H522 lung and in the assay on SF-295 CNS was more than 100 µM each time. In the assay with TK-10 renal, the TGI was more than 100 µM.
As to `CCC1(CC)C(=O)[N-]C(=O)[N-]C1=O.[Au+].[Au+].c1ccc([PH+](c2ccccc2)c2ccccc2)cc1.c1ccc([PH+](c2ccccc2)c2ccccc2)cc1`, the GI50 was 1.74 µM with COLO 205 colon; 0.626 µM in the assay with MALME-3M melanoma; 0.119 µM in the assay on NCI-H522 lung; 1.52 µM in the assay on SF-295 CNS; 1.79 µM with TK-10 renal. Further, the TGI in the assay with COLO 205 colon stood at 3.36 µM; in the assay with MALME-3M melanoma, 1.94 µM; with NCI-H522 lung it was 0.244 µM; in the assay with SF-295 CNS, 2.91 µM; with TK-10 renal, 3.18 µM.
Regarding `C/C=C/C(=O)[O-].N.N.N.N.N.[Co+3].[O-][Cl+3]([O-])([O-])[O-]`, the GI50 in the assay with A549 NSCLC, in the assay with COLO 205 colon, in the assay with EKVX NSCLC, in the assay with MALME-3M melanoma, in the assay with NCI-H522 lung and in the assay on SF-295 CNS was more than 100 µM throughout. In addition, in the assay with TK-10 renal, the GI50 is more than 100 µM. Further, the TGI in the assay with A549 NSCLC, in the assay with COLO 205 colon, with EKVX NSCLC, in the assay on MALME-3M melanoma, with NCI-H522 lung and in the assay with SF-295 CNS was more than 100 µM in each case. Besides, in the assay on TK-10 renal, the TGI was more than 100 µM.
In the case of `CCOC(=O)/C(C#N)=C(N)/C(=N\Nc1cccc(C(F)(F)F)c1)C(=O)OCC`, the TGI in the assay with A549 NSCLC, in the assay with COLO 205 colon, with EKVX NSCLC, in the assay on MALME-3M melanoma, in the assay on NCI-H522 lung and in the assay with SF-295 CNS was more than 100 µM throughout. In addition, in the assay with TK-10 renal, the TGI is more than 100 µM.
Take `O=C(O)c1oc2cccc3c2c1CCC3`: the TGI in the assay on A549 NSCLC, in the assay on COLO 205 colon, in the assay with EKVX NSCLC, in the assay on MALME-3M melanoma, with NCI-H522 lung and with SF-295 CNS was more than 100 µM throughout. Moreover, in the assay on TK-10 renal, the TGI is more than 100 µM.
Consider `O=C1C2=C(c3ccccc31)C(c1ccc(Cl)cc1)NC(=S)N2` (configuration not stated), for which the TGI with A549 NSCLC was 39 µM; with COLO 205 colon it was 64.9 µM; with EKVX NSCLC, more than 100 µM; in the assay on MALME-3M melanoma, 79.4 µM; with NCI-H522 lung, 56.2 µM; with SF-295 CNS, 29.9 µM. In addition, the TGI in the assay on TK-10 renal worked out at 48.9 µM.
With `[N-]=[N+]=Nc1c(Br)c(=O)[nH]c(=O)n1COCCO`, the TGI in the assay with A549 NSCLC, in the assay on COLO 205 colon, in the assay on MALME-3M melanoma, with NCI-H522 lung, in the assay on SF-295 CNS and with TK-10 renal was more than 100 µM in each case.
